# Assay results as given in PubChem BioAssay (NCI).
#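 Dose response: 5 concentrations. Exposure: 48 h. Format: 96-well plates. Endpoint: linear interpolation; highest concentration if not reached. GI50 marks 50% less growth. At the TGI there is no net growth.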
# Assays:
# Assay in all cases: growth of human tumour cells (NCI), 48 h
# MDA-MB-468 breast = test system: MDA-MB-468 breast
# 786-0 renal = test system: 786-0 renal
# A498 renal = test system: A498 renal
# A549 NSCLC = test system: A549 NSCLC
# ACHN renal = test system: ACHN renal
# BT-549 breast = test system: BT-549 breast
# CAKI-1 renal = test system: CAKI-1 renal
# CCRF-CEM leukemia = test system: CCRF-CEM leukemia
# COLO 205 colon = test system: COLO 205 colon
# DU-145 prostate = test system: DU-145 prostate
# EKVX NSCLC = test system: EKVX NSCLC
# HCC-2998 colon = test system: HCC-2998 colon
# HCT-116 colon = test system: HCT-116 colon
# HCT-15 colon = test system: HCT-15 colon
# HL-60(TB) leukemia = test system: HL-60(TB) leukemia
# HOP-62 NSCLC = test system: HOP-62 NSCLC
# HOP-92 NSCLC = test system: HOP-92 NSCLC
# HS 578T breast = test system: HS 578T breast
# HT29 colon = test system: HT29 colon
# IGROV1 ovarian = test system: IGROV1 ovarian
# K-562 leukemia = test system: K-562 leukemia
# KM12 colon = test system: KM12 colon
# LOX IMVI melanoma = test system: LOX IMVI melanoma
# M14 melanoma = test system: M14 melanoma
# MALME-3M melanoma = test system: MALME-3M melanoma
# MCF7 breast = test system: MCF7 breast
# MDA-MB-231 breast = test system: MDA-MB-231 breast
# MDA-MB-435 = test system: MDA-MB-435
# MOLT-4 leukemia = test system: MOLT-4 leukemia
# NCI-H226 lung = test system: NCI-H226 lung
# NCI-H23 lung = test system: NCI-H23 lung
# NCI-H460 lung = test system: NCI-H460 lung
# NCI-H522 lung = test system: NCI-H522 lung
# NCI/ADR-RES ovarian = test system: NCI/ADR-RES ovarian
# OVCAR-3 ovarian = test system: OVCAR-3 ovarian
# OVCAR-4 ovarian = test system: OVCAR-4 ovarian
# OVCAR-5 ovarian = test system: OVCAR-5 ovarian
# OVCAR-8 ovarian = test system: OVCAR-8 ovarian
# PC-3 prostate = test system: PC-3 prostate
# RPMI-8226 leukemia = test system: RPMI-8226 leukemia
# RXF 393 renal = test system: RXF 393 renal
# SF-268 CNS = test system: SF-268 CNS
# SF-295 CNS = test system: SF-295 CNS
# SF-539 CNS = test system: SF-539 CNS
# SK-MEL-2 melanoma = test system: SK-MEL-2 melanoma
# SK-MEL-28 melanoma = test system: SK-MEL-28 melanoma
# SK-MEL-5 melanoma = test system: SK-MEL-5 melanoma
# SK-OV-3 ovarian = test system: SK-OV-3 ovarian
# SN12C renal = test system: SN12C renal
# SNB-19 CNS = test system: SNB-19 CNS
# SNB-75 CNS = test system: SNB-75 CNS
# SR leukemia = test system: SR leukemia
# SW-620 colon = test system: SW-620 colon
# T-47D breast = test system: T-47D breast
# TK-10 renal = test system: TK-10 renal
# U251 CNS = test system: U251 CNS
# UACC-257 melanoma = test system: UACC-257 melanoma
# UACC-62 melanoma = test system: UACC-62 melanoma
# UO-31 renal = test system: UO-31 renal
structure (smiles),measurement,setting,value
CCn1c2ccc(/C=N/OCCCN(C)C)cc2c2cc(/C=N/OCCCN(C)C)ccc21,GI50,MDA-MB-468 breast,1380 nM
same,TGI,MDA-MB-468 breast,3050 nM
COC(=O)CCCCCN=Cc1c(O)c(O)c(C(C)C)c2cc(C)c(-c3c(C)cc4c(C(C)C)c(O)c(O)c(C=NCCCCCC(=O)OC)c4c3O)c(O)c12,GI50,MDA-MB-468 breast,1970 nM
same,TGI,MDA-MB-468 breast,12900 nM
CSc1ccc(/C=C2\C=C(CC(=O)NCc3ccc(C(=O)c4ccccc4)cc3)c3cc(F)ccc32)cc1,GI50,MDA-MB-468 breast,19.9 nM
same,TGI,MDA-MB-468 breast,7400 nM
CCC(c1cccc(O)c1)C(CC)c1cccc(O)c1 (stereo not drawn),GI50,MDA-MB-468 breast,28 nM
same,TGI,MDA-MB-468 breast,4370 nM
CC(=O)Nc1ccc(NC(=O)Nc2cccc(-c3nc(-c4ccc(NC(=O)c5cccs5)cc4Cl)no3)c2)cc1C(F)(F)F,GI50,MDA-MB-468 breast,449 nM
same,TGI,MDA-MB-468 breast,1730 nM
COc1ccc(-c2cn[nH]c2-c2cc(OC)c3c(c2)OCCO3)cc1,GI50,MDA-MB-468 breast,115 nM
same,TGI,MDA-MB-468 breast,2760 nM
Cc1cc(-c2nnc3n2CCCCC3)c(C)n1-c1ccc(Cl)c(Cl)c1,GI50,MDA-MB-468 breast,2660 nM
same,TGI,MDA-MB-468 breast,14000 nM
COc1ccc(C(=O)N2c3ccccc3Sc3ccccc32)c(C(F)(F)F)c1,GI50,MDA-MB-468 breast,364 nM
same,TGI,MDA-MB-468 breast,41500 nM
CC1=C2C(=O)[C@](C)(CO)C=C2C(=O)[C@](C)(O)C12CC2,GI50,MDA-MB-468 breast,1520 nM
same,TGI,MDA-MB-468 breast,3160 nM
O=C1CC(=O)OC(c2ccc([N+](=O)[O-])cc2)O1,GI50,MDA-MB-468 breast,1670 nM
same,TGI,MDA-MB-468 breast,3480 nM
COc1cc(S(C)(=O)=O)ccc1Nc1nc2ccc(-c3ccc(NC(=O)[C@H](C)c4ccc(F)cc4)cc3)cn2n1,GI50,MDA-MB-468 breast,68600 nM
same,TGI,MDA-MB-468 breast,> 100000 nM
COC(=O)CCC1=C(C)/C(=C/c2[nH]c(-c3ccc[nH]3)cc2OC)N=C1C,GI50,MDA-MB-468 breast,1140 nM
same,TGI,MDA-MB-468 breast,3180 nM
Cc1ccc(NC(=O)Cn2c(Br)nc3c2c(=O)n(C)c(=O)n3C)cc1,GI50,MDA-MB-468 breast,10100 nM
same,TGI,MDA-MB-468 breast,23200 nM
CCOc1c(Cl)cc(CNC(C)C(O)c2ccccc2)cc1OC (stereo not drawn),GI50,MDA-MB-468 breast,16700 nM
same,TGI,MDA-MB-468 breast,33200 nM
N#C[C@@H]1C(n2ccc(N)nc2=O)O[C@H](CO)[C@H]1O (stereo partly drawn),GI50,MDA-MB-468 breast,> 73100 nM
same,TGI,MDA-MB-468 breast,> 100000 nM
O=C(NO)c1ccc(CNC(=O)[C@H]2Cc3c([nH]c4ccccc34)[C@H](c3ccc(Cl)cc3)N2)cc1,GI50,786-0 renal,3710 nM
same,TGI,786-0 renal,14200 nM
same,GI50,A498 renal,2060 nM
same,TGI,A498 renal,9060 nM
same,GI50,A549 NSCLC,3970 nM
same,TGI,A549 NSCLC,> 22000 nM
same,GI50,ACHN renal,3050 nM
same,TGI,ACHN renal,9570 nM
same,GI50,BT-549 breast,4930 nM
same,TGI,BT-549 breast,11000 nM
same,GI50,CAKI-1 renal,2330 nM
same,TGI,CAKI-1 renal,9730 nM
same,GI50,CCRF-CEM leukemia,617 nM
same,TGI,CCRF-CEM leukemia,> 22000 nM
same,GI50,COLO 205 colon,719 nM
same,TGI,COLO 205 colon,3380 nM
same,GI50,DU-145 prostate,1080 nM
same,TGI,DU-145 prostate,> 22000 nM
same,GI50,EKVX NSCLC,2650 nM
same,TGI,EKVX NSCLC,16400 nM
same,GI50,HCC-2998 colon,605 nM
same,TGI,HCC-2998 colon,3080 nM
same,GI50,HCT-116 colon,609 nM
same,TGI,HCT-116 colon,3720 nM
same,GI50,HCT-15 colon,4260 nM
same,TGI,HCT-15 colon,> 22000 nM
same,GI50,HL-60(TB) leukemia,706 nM
same,TGI,HL-60(TB) leukemia,3130 nM
same,GI50,HOP-62 NSCLC,1270 nM
same,TGI,HOP-62 NSCLC,7420 nM
same,GI50,HOP-92 NSCLC,930 nM
same,TGI,HOP-92 NSCLC,4480 nM
same,GI50,HS 578T breast,1010 nM
same,TGI,HS 578T breast,> 22000 nM
same,GI50,HT29 colon,838 nM
same,TGI,HT29 colon,> 22000 nM
same,GI50,IGROV1 ovarian,1200 nM
same,TGI,IGROV1 ovarian,4270 nM
same,GI50,K-562 leukemia,720 nM
same,TGI,K-562 leukemia,> 22000 nM
same,GI50,KM12 colon,2360 nM
same,TGI,KM12 colon,6710 nM
same,GI50,LOX IMVI melanoma,1090 nM
same,TGI,LOX IMVI melanoma,4760 nM
same,GI50,M14 melanoma,2200 nM
same,TGI,M14 melanoma,8420 nM
same,GI50,MALME-3M melanoma,410 nM
same,TGI,MALME-3M melanoma,2310 nM
same,GI50,MCF7 breast,874 nM
same,TGI,MCF7 breast,8360 nM
same,GI50,MDA-MB-231 breast,887 nM
same,TGI,MDA-MB-231 breast,4000 nM
same,GI50,MDA-MB-435,959 nM
same,TGI,MDA-MB-435,4360 nM
same,GI50,MDA-MB-468 breast,380 nM
same,TGI,MDA-MB-468 breast,1140 nM
same,GI50,MOLT-4 leukemia,563 nM
same,TGI,MOLT-4 leukemia,> 22000 nM
same,GI50,NCI-H226 lung,2270 nM
same,TGI,NCI-H226 lung,11600 nM
same,GI50,NCI-H23 lung,1330 nM
same,TGI,NCI-H23 lung,4260 nM
same,GI50,NCI-H460 lung,1020 nM
same,TGI,NCI-H460 lung,> 22000 nM
same,GI50,NCI-H522 lung,584 nM
same,TGI,NCI-H522 lung,3160 nM
same,GI50,NCI/ADR-RES ovarian,3350 nM
same,TGI,NCI/ADR-RES ovarian,> 22000 nM
same,GI50,OVCAR-3 ovarian,1230 nM
same,TGI,OVCAR-3 ovarian,9150 nM
same,GI50,OVCAR-4 ovarian,3730 nM
same,TGI,OVCAR-4 ovarian,> 22000 nM
same,GI50,OVCAR-5 ovarian,456 nM
same,TGI,OVCAR-5 ovarian,3010 nM
same,GI50,OVCAR-8 ovarian,942 nM
same,TGI,OVCAR-8 ovarian,> 22000 nM
same,GI50,PC-3 prostate,1760 nM
same,TGI,PC-3 prostate,9170 nM
same,GI50,RPMI-8226 leukemia,564 nM
same,TGI,RPMI-8226 leukemia,> 22000 nM
same,GI50,RXF 393 renal,455 nM
same,TGI,RXF 393 renal,2250 nM
same,GI50,SF-268 CNS,2920 nM
same,TGI,SF-268 CNS,12500 nM
same,GI50,SF-295 CNS,1810 nM
same,TGI,SF-295 CNS,4750 nM
same,GI50,SF-539 CNS,1140 nM
same,TGI,SF-539 CNS,4240 nM
same,GI50,SK-MEL-2 melanoma,2770 nM
same,TGI,SK-MEL-2 melanoma,7030 nM
same,GI50,SK-MEL-28 melanoma,878 nM
same,TGI,SK-MEL-28 melanoma,3620 nM
same,GI50,SK-MEL-5 melanoma,721 nM
same,TGI,SK-MEL-5 melanoma,2710 nM
same,GI50,SK-OV-3 ovarian,2010 nM
same,TGI,SK-OV-3 ovarian,5900 nM
same,GI50,SN12C renal,2410 nM
same,TGI,SN12C renal,9150 nM
same,GI50,SNB-19 CNS,2260 nM
same,TGI,SNB-19 CNS,5300 nM
same,GI50,SNB-75 CNS,2260 nM
same,TGI,SNB-75 CNS,7580 nM
same,GI50,SR leukemia,1150 nM
same,TGI,SR leukemia,> 22000 nM
same,GI50,SW-620 colon,687 nM
same,TGI,SW-620 colon,2370 nM
same,GI50,T-47D breast,600 nM
same,TGI,T-47D breast,5440 nM
same,GI50,TK-10 renal,1510 nM
same,TGI,TK-10 renal,14600 nM
same,GI50,U251 CNS,1210 nM
same,TGI,U251 CNS,5800 nM
same,GI50,UACC-257 melanoma,1230 nM
same,TGI,UACC-257 melanoma,> 22000 nM
same,GI50,UACC-62 melanoma,538 nM
same,TGI,UACC-62 melanoma,2940 nM
same,GI50,UO-31 renal,2640 nM
same,TGI,UO-31 renal,6270 nM
